Laboratory results as given in article PMC7037393, “Synthesis, Structural, and Cytotoxic Properties of New Water-Soluble Copper(II) Complexes Based on 2,9-Dimethyl-1,10-Phenanthroline and Their One Derivative Containing 1,3,5-Triaza-7-Phosphaadamantane-7-Oxide” (Molecules, 2020).

Tests used:
[1] = test system: LoVo (human colorectal adenocarcinoma); test: Cytotoxicity on LoVo cells, quantitative suspension test according to EN 14476; type: cell-based; details: observed 4 days, aqua media
Description: (§1) Normal human dermal fibroblasts (NHDF) (PromoCell, C-12302) were used as normal cells and LoVo (human colorectal adenocarcinoma, ATCC® CCL-229™), A549 (human lung carcinoma, ATCC, No. CCL-185 TM), MCF-7 (human breast adenocarcinoma, ATCC, No. HTB-22^TM) and HeLa (human cervix carcinoma, ATCC, No. CCL-2 TM) were used as cancer cells. They were cultured in DMEM, DMEM–F12 or EMEM (Lonza, CA, USA). Media were supplemented with 10% FBS (Biological Industries, Kibbutz Beit-Haemek, Israel), 2 mM L-glutamine (Biological Industries, Israel), 100 U/mL of penicillin and 100 µg/mL of streptomycin (Sigma, Neustadt an der Weinstrasse, Germany).
(§2) The 100 μL of suspension of NHDF, A549, HeLa, LoVo, and MCF7 cells at a density of 4 × 10^4 cells mL^−1 were incubated in a 96-well polystyrene plate (NUNC, Denmark) for 24 h. Product test solutions were prepared in DMEM, DMEM–F12, or EMEM supplemented with additional 2% FBS and 2 mM L-glutamine. Solutions of the reagents at concentrations from 460 (for 1), 454 (2), […] (3), 1242 (Cu(NO3)2), 1732 (PTA=O), and 1440 µM (dmphen) to 4.60 × 10^−6, 4.54 × 10^−6, 4.69 × 10^−6, 1.24 × 10^−5, 1.73 × 10^−5, and 1.44 × 10^−5 µM, respectively, were prepared and transferred (100 μL) into cell culture units (wells of microtiter plates) containing monolayer of cells. Eight units were inoculated with each dilution. Plates were incubated in 37 °C, 5% CO2 and observed daily for 4 days for the development of cytotoxic effect, using an inverted microscope (Olympus Corp., Hamburg, Germany, Axio Observer, Carl Zeiss MicroImaging GmbH). Then the wells were washed in phosphate buffered saline (PBS) and stained using DAPI (4′,6-diamidino-2-phenylindole) and propidium iodide (Merck, Darmstadt, Germany). The study used the fact that DAPI is able to be combined with cellular DNA, permeate through the membrane of cell, rapidly enter the nucleus of living cells and bind with DNA to form a DAPI-DNA complex. […] In cell culture these are cells that are apoptotic or damaged by any physical or chemical agent. Therefore, if these two fluorochrome are given at the same time, DAPI will get to healthy cells faster, while propidium iodide will stain dead or dying cells. The calculation of the ratio of cells counted on a specific area, allows to determine the potency of a substance in inhibiting a specific biological function (IC50).

[2] = test system: A549 (human lung carcinoma); test: Cytotoxicity on A549 cells, quantitative suspension test according to EN 14476; type: cell-based; details: observed 4 days, aqua media
Description: as §1, §2

[3] = test system: MCF7 (human breast adenocarcinoma); test: Cytotoxicity on MCF7 cells, quantitative suspension test according to EN 14476; type: cell-based; details: observed 4 days, aqua media
Description: as §1, §2

[4] = test system: HeLa (human cervix carcinoma); test: Cytotoxicity on HeLa cells, quantitative suspension test according to EN 14476; type: cell-based; details: observed 4 days, aqua media
Description: as §1, §2

[5] = test system: NHDF cells; test: Cytotoxicity on normal human dermal fibroblasts, quantitative suspension test according to EN 14476 (DAPI/propidium iodide); type: cell-based; details: observed 4 days, aqua media
Description: as §1, §2

[6] = Solubility in water at 25 °C, stepwise water addition; type: physicochemical; details: H2O
Description: The copper complexes 1–3 were air stable in the solid state and at least for several days in H2O solutions. In a general procedure, the complex was dissolved in H2O in air atmosphere. […] Also UV-Vis spectra of water solutions of 1-3 confirm their stability in several days. […] After each addition of an amount of water (100 µL), the mixture was shaken for several minutes and then visually checked for any undissolved parts of the sample.

Molecule Cc1ccc2ccc3ccc(C)nc3c2n1.F[P-](F)(F)(F)(F)F.O=P12CN3CN(CN(C3)C1)C2.O=[N+]([O-])[O-].[Cu+2] [Complex 1, [Cu(NO3)(PTA=O)(dmphen)][PF6]] has an IC50 [1] of 0.57 ± 0.08 µM, an IC50 [2] of 0.29 ± 0.01 µM and an IC50 [3] of 0.57 ± 0.08 µM. The IC50 [4] was 1.12 ± 0.16 µM, the IC50 [5] was 0.57 ± 0.08 µM and the “solubility in water S25 °C” value [6] was 3.8 mg mL^−1 and ≈ 3.8 mg mL^−1.
For Cc1ccc2ccc3ccc(C)nc3c2n1.Cc1ccc2ccc3ccc(C)nc3c2n1.F[P-](F)(F)(F)(F)F.[Cl-].[Cu+2] [Complex 2, [Cu(Cl)(dmphen)2][PF6]], the IC50 [1] was 1.13 ± 0.17 µM, the IC50 [2] was 0.28 ± 0.04 µM and the IC50 [3] was 0.57 ± 0.08 µM. The IC50 [4] was 1.13 ± 0.17 µM, the IC50 [5] was 0.23 ± 0.03 µM and the “solubility in water S25 °C” value [6] was 2.5 mg mL^−1 and ≈ 2.5 mg mL^−1.
In the case of CC#N.Cc1ccc2ccc3ccc(C)nc3c2n1.O=[N+]([O-])[O-].O=[N+]([O-])[O-].[Cu+2] [Complex 3, [Cu(NO3)2(dmphen)]∙MeCN], the IC50 [1] is reported as 1.72 ± 0.25 µM, the IC50 [2] is reported as 0.43 ± 0.06 µM and the IC50 [3] is reported as 3.45 ± 0.51 µM. The IC50 [4] was 0.43 ± 0.06 µM, the IC50 [5] was 1.72 ± 0.25 µM and the “solubility in water S25 °C” value [6] was 2.9 mg mL^−1 and ≈ 2.9 mg mL^−1.
